Counter-ions that a name gives are not always drawn. Like-named read-outs stand apart in the source and are kept apart here.
Assays:
caspase 8 = test: FLICA caspase-8 activity, flow cytometry; assay type: cell-based, human; settings: 5 µM, 24 h, MCF-7
Description: (§1) To determine the effects of the novel compounds on the caspases-3/7, caspase-8, caspase-9, and caspase-10 activity, the FLICA Caspase-3/7 Assay Kit, FLICA Caspase-8 Assay Kit, FLICA Caspase-9 Assay Kit, and FLICA Caspase-10 Assay Kit were applied (ImmunoChemistry Technologies, Bloomington, MN, USA). MCF-7 cells were seeded on 6-well plates (1 × 10^5 cells per well) and incubated for 24 h. Afterwards, they were treated for 24 h with tested compounds (Les-6416, Les-6418, Les-6381, Les-6423, and Les-6424) in a concentration of 5 µM and the reference drug doxorubicin hydrochloride in a concentration of 0.5 µM. Next, cells were amassed and washed two times with cold PBS, followed by resuspension in an Apoptosis Wash Buffer to a final concentration of 5 × 10^5 cells/mL. Afterwards, 290 µL of the prepared cell suspensions were transferred into tubes, followed by the addition of 10 µL of FLICA solution, prepared immediately before use, to each sample and incubated for an hour at 37 °C. Next, cells were washed two times with 2 mL of Apoptosis Wash Buffer, provided in the kit, centrifuged, and resuspended in 300 µL of the buffer. Prepared samples were assessed by a BD FACSCanto II flow cytometer (Becton Dickinson Biosciences, San Jose, CA, USA). For each sample, 1 × 10^4 events were analyzed. The obtained results were investigated by applying FACSDiva software Version 6.1.3 (BD Biosciences Systems, San Jose, CA, USA).
To further investigate the effects of the newly synthesized compounds on the process of apoptosis we decided to measure their impact on various caspases as evidence of intrinsic (caspase 9) or extrinsic (caspase 8, 10) pathways of programmed cell death by applying flow cytometry analysis after 24 h treatment of MCF-7 breast cancer cells with novel 4-thiazolidinone derivatives and reference drug doxorubicin hydrochloride. […] With 41.28 ± 5.45%, 43.23 ± 2.85%, and 41.90 ± 6.89% of cells with activated caspase 8, 10, and 9, respectively, Les-6416 continued the trend of displaying the most significant effect on the three tested caspases. […]

caspase 10 = test: FLICA caspase-10 activity, flow cytometry; assay type: cell-based, human; settings: 5 µM, 24 h, MCF-7
Description: as §1, with “The obtained results were investigated by applying FACSDiva software Version 6.1.3 (BD Biosciences Systems, San Jose, CA, USA).” left out

caspase 9 = test: FLICA caspase-9 activity, flow cytometry; assay type: cell-based, human; settings: 5 µM, 24 h, MCF-7
Description: as §1, with “The obtained results were investigated by applying FACSDiva software Version 6.1.3 (BD Biosciences Systems, San Jose, CA, USA).” left out

MCF7 = assay type: cell-based
MCF-7 cells [1] = test: Scratch assay (cell migration); assay type: cell-based, human; settings: 24 h
Description: To assess the effects of the tested compounds on cell migration, the scratch assay method was applied [34]. Cells were seeded in 24-well plates at 2 × 10^5 cells per well in 1 mL medium and incubated overnight. Afterwards, they were left in an incubator at 37 °C for 24 h to attach to the wells. The next day, scratches were made using a 200 µL pipette tip in confluent monolayers. […] Images were obtained by utilizing a Nikon ECLIPSE Ti microscope (Nikon, Tokyo, Japan) after 0, 24, and 48 h. The area of the scratches was measured manually via ImageJ software version 1.54k (Bethesda, MD, USA).
The MCF-7 breast cancer cells were treated for 24 h with the tested compounds in concentrations of 5, 2.5, and 1 µM and doxorubicin hydrochloride in concentrations of 1 and 0.5 µM.

MDA-MB-468 = assay type: cell-based
[2] = test system: panel of 60 cancer cell lines; assay type: cell-based; settings: for Mean Growth, % / Range of Growth, % / Positive Cytostatic Effect / Positive Cytotoxic Effect: 10 μM; for Mean Growth, % / Range of Growth, %: one dose; for Positive Cytostatic Effect: number of cell lines with GP from 0 to 50 / total number of cell lines; for Positive Cytotoxic Effect: number of cell lines with GP of <0 / total number of cell lines; for LC50: read-out: MG_MID_60 LC50
MCF-7 cells [3] = test: [3H]-thymidine incorporation assay; assay type: cell-based; settings: Homo sapiens, 24 h, read-out: [3H]-thymidine incorporation (% of control); for activity at 1 µM: MCF7, 1 µM; for activity at 2.5 µM: MCF7, 2.5 µM; for activity at 5 µM: MCF7, 5 µM
Description: To evaluate the effects of synthesized compounds and reference drug on cell proliferation [3H]-thymidine incorporation assay was applied. MCF-7 cells were seeded on 6-well plates as described before. After 24 h of incubation, the cells were treated with different concentrations of novel 4-thiazolidinone derivatives Les-6416, Les-6418 (1, 2.5, 5 µM), and doxorubicin hydrochloride (0.5 and 1 µM) for 24 h at 37 °C. After 24 h, the medium was changed to a fresh one without fetal bovine serum. A total of 0.5 µCi of tritium-labeled thymidine (specific activity: 7 Ci/mmol) was added to cells for 4 h. Afterwards, the cells were washed with 1 mL of 0.05 M Tris-HCl buffer pH 7.4 containing 0.11 M NaCl and […] 5% trichloroacetic acid (TCA). Each well was filled with 1 mL of a 0.1 M NaOH solution with 1% SDS for cell lysis. After 5 min, the cell lysates were transferred to scintillation vials, which were pre-filled beforehand with two milliliters of scintillation cocktail Ultima Gold XR from PerkinElmer (Waltham, MA, USA). The Scintillation Counter 1900 TR, TRI-CARB (Packard, Perkin Elmer, Inc., San Jose, CA, USA) was used to record the results. The radioactivity observed in untreated control cells was taken as 100%. The values of the tested compound were expressed as a percentage of the control value.
To investigate the antiproliferative activity of Les-6416 and Les-6418 on the MCF-7 cell line after 24 h of treatment, the [^3H]-thymidine incorporation assay was applied. Based on the outcome of previous analysis and the structural similarity of the tested compounds, 5, 2.5, and 1 µM concentrations were applied for this research. The obtained results are shown in the graph below (Figure 2). […] Formidable results also were obtained from the reference drug doxorubicin hydrochloride: 26.00 ± 7.07% for 1 µM and 43.50 ± 3.54% for 0.5 µM

HL-60(TB) = assay type: cell-based
SK-MEL-5 = assay type: cell-based
NCI-H460 = assay type: cell-based; settings: for Growth %: NCI-H460, 10 μM, one dose, 48 h
NCI-H522 = assay type: cell-based
UACC-62 = assay type: cell-based
HT29 = assay type: cell-based

SMILES: COc1ccc(C=C2SC(Nc3cc(OC)c(OC)c(OC)c3)=NC2=O)cc1 [Les-6381, 5-(4-Methoxybenzylidene)-2-((3,4,5-trimethoxyphenyl)amino)thiazol-4(5H)-one]
- cells with active caspase 8 (caspase 8): 19.8 ± 3.69%

SMILES: COc1cc(NC2=NC(=O)C(=Cc3cccs3)S2)cc(OC)c1OC [Les-6423, 5-(Thiophen-2-ylmethylene)-2-((3,4,5-trimethoxyphenyl)amino)thiazol-4(5H)-one]
- cells with active caspase 10 (caspase 10): did not show any effect
- cells with active caspase 8 (caspase 8): 18.13 ± 1.96%
- cells with active caspase 9 (caspase 9): did not show any effect

SMILES: COc1cc(NC2=NC(=O)C(=Cc3ccc4cc[nH]c4c3)S2)cc(OC)c1OC [Les-6416, 5-((1H-Indol-6-yl)methylene)-2-((3,4,5-trimethoxyphenyl)amino)thiazol-4(5H)-one]
- Growth % (MCF7; MCF-7, 10 μM, one dose, 48 h): 6.76%
- Closure of the gap area (MCF-7 cells [1]; 1 µM): 21.00 ± 7.07%
- Growth % (MDA-MB-468; MDA-MB-468, 10 μM, one dose, 48 h): 1.33%
- Mean Growth, % ([2]; 48 h): 39.56%
- Range of Growth, % ([2]; 48 h): −33.26–97.05%
- Positive Cytostatic Effect [2]: 38/58
- Positive Cytotoxic Effect [2]: 2/58
- activity at 1 µM (MCF-7 cells [3]): 69 ± 1.41%
- activity at 2.5 µM (MCF-7 cells [3]): 27 ± 5.66%
- activity at 5 µM (MCF-7 cells [3]): 21.5 ± 2.12%
- Growth % (HL-60(TB); HL60(TB), 10 μM, one dose, 48 h): 15.10%
- cells with active caspase 10 (caspase 10): 43.23 ± 2.85%
- cells with active caspase 8 (caspase 8): 41.28 ± 5.45%
- Growth % (SK-MEL-5; SK-Mel-5, 10 μM, one dose, 48 h): −4.74%
- Growth % (NCI-H460): 17.93%
- Growth % (NCI-H522; NCI-H522, 10 μM, one dose, 48 h): 3.77%
- cells with active caspase 9 (caspase 9): 41.90 ± 6.89%
- Growth % (UACC-62; UACC-62, 10 μM, one dose, 48 h): 18.03%
- Growth % (HT29; HT29, 10 μM, one dose, 48 h): 7.66%

SMILES: COc1cccc2c1C(=O)c1c(O)c3c(c(O)c1C2=O)C[C@@](O)(C(=O)CO)C[C@@H]3O[C@H]1C[C@H](N)[C@H](O)[C@H](C)O1 [DOX, Doxorubicin hydrochloride, reference compound]
- Closure of the gap area (MCF-7 cells [1]; 0.5 µM): 25.50 ± 20.51%
- activity at 0.5 µM (MCF-7 cells [3]; MCF7, 0.5 µM): 43.5 ± 3.54%
- activity at 1 µM (MCF-7 cells [3]): 26 ± 7.07%

SMILES: COc1cc(NC2=NC(=O)C(=Cc3c[nH]c4ccccc34)S2)cc(OC)c1OC [Les-6418, 5-((1H-Indol-3-yl)methylene)-2-((3,4,5-trimethoxyphenyl)amino)thiazol-4(5H)-one]
- GI50 (MCF7; Homo sapiens, MCF7, 48 h): 1.79 µM
- CC50 (MCF7; Homo sapiens, MCF7, 48 h, read-out: LC50 (the source's name)): 44.7 µM
- TGI (MCF7; MCF7, 48 h): 11.9 µM
- SI (TGI) (MCF7; MCF7, MG_MID_60/value): 1.56
- GI50 (MDA-MB-468; Homo sapiens, MDA-MB-468, 48 h): 0.657 µM
- CC50 (MDA-MB-468; Homo sapiens, MDA-MB-468, 48 h, read-out: LC50 (the source's name)): 34.3 µM
- TGI (MDA-MB-468; MDA-MB-468, 48 h): 6.23 µM
- SI (TGI) (MDA-MB-468; MDA-MB-468, MG_MID_60/value): 2.99
- Mean Growth, % ([2]; 48 h): −43.64%
- Range of Growth, % ([2]; 48 h): −88.00–14.92%
- Positive Cytostatic Effect [2]: 7/59
- Positive Cytotoxic Effect [2]: 52/59
- LC50 ([2]; Homo sapiens, 48 h, full panel mean, 48 h): 56.6 µM
- GI50 ([2]; Homo sapiens, CCRF-CEM, HL-60(TB), SR, NCI-H522, HT29, KM12, MDA-MB-435, OVCAR-3, ACHN, BT-549, MDA-MB-468, read-out: GI50, submicromolar concentration range): 0.28 to 0.98 µM
- GI50 ([2]; Homo sapiens, full panel mean, 48 h, read-out: MG_MID_60 GI50): 3.27 µM
- MG_MID_60 TGI ([2]; full panel mean, 48 h): 18.6 µM
- LC50 ([2]; full panel mean, 48 h): 56.5 µM
- SI against certain types of cancer ([2]; subpanel selectivity indices at studied dose–response parameters): 0.71–1.60
- activity at 1 µM (MCF-7 cells [3]): 95.5 ± 7.78%
- activity at 2.5 µM (MCF-7 cells [3]): 72 ± 12.7%
- activity at 5 µM (MCF-7 cells [3]): 48.5 ± 12%
- TGI (HL-60(TB); HL-60(TB), 48 h): 11.1 µM
- SI (TGI) (HL-60(TB); HL-60(TB), MG_MID_60/value): 1.68
- GI50 (HL-60(TB); Homo sapiens, HL-60(TB), 48 h): 0.855 µM
- CC50 (HL-60(TB); Homo sapiens, HL-60(TB), 48 h, read-out: LC50 (the source's name)): > 100 µM
- GI50 (SK-MEL-5; Homo sapiens, SK-MEL-5, 48 h): 2.46 µM
- CC50 (SK-MEL-5; Homo sapiens, SK-MEL-5, 48 h, read-out: LC50 (the source's name)): 39.1 µM
- TGI (SK-MEL-5; SK-MEL-5, 48 h): 14.1 µM
- SI (TGI) (SK-MEL-5; SK-MEL-5, MG_MID_60/value): 1.32
- GI50 (NCI-H460; Homo sapiens, NCI-H460, 48 h): 2.1 µM
- LC50 (50% lethal concentration) (NCI-H460; Homo sapiens, NCI-H460, 48 h): 92 µM
- Growth % (NCI-H460): −77.59%
- TGI (NCI-H460; NCI-H460, 48 h): 14.3 µM
- SI (TGI) (NCI-H460; NCI-H460, MG_MID_60/value): 1.30
- GI50 (NCI-H522; Homo sapiens, NCI-H522, 48 h): 0.403 µM
- CC50 (NCI-H522; Homo sapiens, NCI-H522, 48 h, read-out: LC50 (the source's name)): 46 µM
- TGI (NCI-H522; NCI-H522, 48 h): 5.56 µM
- SI (TGI) (NCI-H522; NCI-H522, MG_MID_60/value): 3.34
- GI50 (UACC-62; Homo sapiens, UACC-62, 48 h): 4.75 µM
- CC50 (UACC-62; Homo sapiens, UACC-62, 48 h, read-out: LC50 (the source's name)): 48.3 µM
- TGI (UACC-62; UACC-62, 48 h): 19.7 µM
- SI (TGI) (UACC-62; UACC-62, MG_MID_60/value): 0.94
- TGI (HT29; HT29, 48 h): 10.1 µM
- SI (TGI) (HT29; HT29, MG_MID_60/value): 1.84
- GI50 (HT29; Homo sapiens, HT-29, HT29, 48 h): 0.923 µM
- CC50 (HT29; Homo sapiens, HT-29, HT29, 48 h, read-out: LC50 (the source's name)): 47.6 µM

— paper PMC12190436, “5-Ene-2-arylaminothiazol-4(5H)-ones Induce Apoptosis in Breast Cancer Cells” (Cells, 2025)
